Test results reported in patent US10807976B2, “Quinolinone five-membered heterocyclic compounds as mutant-isocitrate dehydrogenase inhibitors” (FORMA Therapeutics, Inc., priority 2015, dated 2020).

Molecular target: IDH1-R132H recombinant protein (Homo sapiens, UniProt O75874, R132H)
Assay: IDH1-R132H enzymatic assay (diaphorase/resazurin, NADPH consumption)
Type: biochemical
Settings: 30 nM IDH1-R132H, inhibition of NADPH consumption; read-out: Enzyme IDH1 R132H IC50
Protocol: Example 26—IDH1-R132H and IDH1-R132C Enzymatic Assay
Assays were performed in a 384-well black plate. An aliquot of 250 nL of compound was incubated with 10 μL of 30 nM IDH1-R132H or 10 nM IDH1-R132C recombinant protein in assay buffer (50 mM Tris pH=7.5, 150 mM NaCl, 5 mM MgCl2, 0.1% (w/v) Bovine Serum Albumin, and 0.01% Triton X-100) in each well at 25° C. for 15 minutes. After the plate was centrifuged briefly, an aliquot of 10 μL of 2 mM α-ketoglutarate and 20 μM NADPH solution prepared in assay buffer was then added to each well and the reaction was maintained at 25° C. for 45 minutes. An aliquot of 10 μL of diaphorase solution (0.15 U/mL diaphorase and 30 μM Resazurin in assay buffer) was added to each well. The plate was maintained at 25° C. for 15 minutes and then read on a plate reader with excitation and emission wavelengths at 535 nm and 590 nm, respectively. The IC50 of a given compound was calculated by fitting the dose response curve of inhibition of NADPH consumption at a given concentration with the four parameter logistic equation.

Sequence of IDH1-R132H recombinant protein (O75874 whole entry R132H): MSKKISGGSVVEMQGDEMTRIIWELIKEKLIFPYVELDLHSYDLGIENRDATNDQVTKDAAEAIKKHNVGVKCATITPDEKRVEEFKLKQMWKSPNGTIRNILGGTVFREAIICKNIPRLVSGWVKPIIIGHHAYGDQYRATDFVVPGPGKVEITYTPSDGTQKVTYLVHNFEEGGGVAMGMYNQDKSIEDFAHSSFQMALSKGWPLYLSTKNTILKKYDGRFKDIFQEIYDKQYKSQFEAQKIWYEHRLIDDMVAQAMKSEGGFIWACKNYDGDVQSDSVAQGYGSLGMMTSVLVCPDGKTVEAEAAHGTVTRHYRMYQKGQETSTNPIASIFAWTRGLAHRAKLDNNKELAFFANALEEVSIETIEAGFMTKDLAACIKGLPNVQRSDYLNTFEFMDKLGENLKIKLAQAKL

- IC50: > 10 µM
Substance: 6-chloro-3-[(1S)-1-{[5-(2-oxo-1,3-oxazolidin-3-yl)-1,2,4-thiadiazol-3-yl]amino}ethyl]-1,2-dihydroquinolin-2-one [Compound I-12]
